Measured values taken from patent publication US20150284430A1, “APPLICATION OF SP PEPTIDE OR DERIVATIVE THEREOF IN PREPARING MEDICINES FOR PREVENTING OR TREATING ASTHMA” (priority 2012, published 2015).

Tested on: allergic asthma mouse model induced by a combination of ovalbumin and adjuvant
Experiment: Lung tissue histopathologic examination and lesion score, ovalbumin/aluminium hydroxide allergic asthma mouse model
Format: in vivo
Conditions: positive medicines group, dexamethasone 0.9 μg/kg·d i.p. every other day x15 from week 15
Procedure: Preparation of sensitized liquid: prepare in a proportion of dissolving 10 ug ovalbumin and 2 mg aluminium hydroxide in 0.5 ml physiological saline, and use it right after being prepared.
On day 1, day 7 and day 14, the mice of all groups (the model group, the preventive administration groups, the treatment administration groups, and the positive medicines group) apart from the blank control group are injected intraperitoneally with 0.5 ml freshly prepared sensitized liquid. The blank control group is injected intraperitoneally with an equal volume of physiological saline.
Since day 21 (i.e., starting from week 4), the mice of all groups apart from the blank control group are placed in a 16 L closed container every fourth days, make the mice inhale 1 wt % ovalbumin physiological saline by ultrasonic nebulization, with an inhalation duration of 25 min/d and a nebulization flow rate of 3 ml/min, for twice a week to induce asthma, and the process continues until week 19. […]
Lung tissue lesions (including bronchia and perivascular interstitial edema, alveolar wall congestion or emphysema) are marked respectively as 1, 2, 3 and 4 in ascending order of severity, 0 stands for no obvious lesions, and 0.5 for extreme mild lesions. All scores are accumulated, and a mean score (±SD) of each mouse in each group is calculated, and a higher score indicates a more severe level of lesions. […]

C[C@@H]1C[C@H]2[C@@H]3CCC4=CC(=O)C=C[C@]4(C)[C@@]3(F)[C@@H](O)C[C@]2(C)[C@@]1(O)C(=O)CO [positive drug, dexamethasone]
inflammatory cells infiltration (histopathology, FIG. 6): infiltration with a few inflammatory cells
pulmonary interstitial edema (histopathology, FIG. 6): mild pulmonary interstitial edema
